Data from patent US20120142766A1, “SUBSTITUTED 1,3-DIOXANES AND THEIR USES” (EVOLVA SA, priority 2007, published 2012).

Key:
[1] = biological target: T1, Thromboxane receptor (TP) (Homo sapiens, UniProt P21731); assay: TP receptor radioligand binding ([3H] SQ-29548); conditions: Human recombinant HEK-293 cells
T1 construct: expressed in transfected cells; host or cells: HEK-293
T1 sequence (P21731 1-343): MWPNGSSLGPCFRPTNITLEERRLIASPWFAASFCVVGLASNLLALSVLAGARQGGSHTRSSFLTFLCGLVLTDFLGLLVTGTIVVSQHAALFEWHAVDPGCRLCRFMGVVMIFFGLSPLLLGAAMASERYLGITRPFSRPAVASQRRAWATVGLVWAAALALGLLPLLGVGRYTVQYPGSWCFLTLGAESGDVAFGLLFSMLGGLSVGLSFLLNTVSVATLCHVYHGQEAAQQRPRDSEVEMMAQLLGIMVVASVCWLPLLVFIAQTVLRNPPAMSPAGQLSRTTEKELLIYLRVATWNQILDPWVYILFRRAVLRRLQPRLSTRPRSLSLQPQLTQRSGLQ
Protocol: The compounds were tested on radioligand binding assays for thromboxane receptor binding essentially as described by Hedberg et al. (1988) J. Pharmacol. Exp. Ther. 245:786-792 and Saussy et al. (1986) J. Biol. Chem. 261: 3025-3029 according to the following:
TP Receptor Radioligand Binding Studies:
Human recombinant HEK-293 cells,
Incubation Time, Temp: 30 minutes at 25° C.
Incubation Buffer: 50 mM Tris-HCl, pH 7.4, 154 mM NaCl
Non-Specific Ligand: 1 μM SQ-29548
The data were transformed to semi-log and then analysed using non-linear regression to a four-parameter dose-response curve Y=Bottom+(Top−Bottom)/(1+10̂((LogEC50−X)*HillSlope)) using the log(agonist) vs. response—Variable slope function of GraphPad Prism software (http://graphpad.com/help/prism5/prism5help.html?usitignonlinear_regression_step_by_s.htm).

Thromboxane synthase = biological target: T2, Thromboxane synthase (Homo sapiens, UniProt P24557); assay: Human platelet thromboxane synthase assay; format: biochemical
T2 construct: Human Platelet Thromboxane Synthase Assay; from tissue; host or cells: human platelets
T2 sequence (P24557 1-533): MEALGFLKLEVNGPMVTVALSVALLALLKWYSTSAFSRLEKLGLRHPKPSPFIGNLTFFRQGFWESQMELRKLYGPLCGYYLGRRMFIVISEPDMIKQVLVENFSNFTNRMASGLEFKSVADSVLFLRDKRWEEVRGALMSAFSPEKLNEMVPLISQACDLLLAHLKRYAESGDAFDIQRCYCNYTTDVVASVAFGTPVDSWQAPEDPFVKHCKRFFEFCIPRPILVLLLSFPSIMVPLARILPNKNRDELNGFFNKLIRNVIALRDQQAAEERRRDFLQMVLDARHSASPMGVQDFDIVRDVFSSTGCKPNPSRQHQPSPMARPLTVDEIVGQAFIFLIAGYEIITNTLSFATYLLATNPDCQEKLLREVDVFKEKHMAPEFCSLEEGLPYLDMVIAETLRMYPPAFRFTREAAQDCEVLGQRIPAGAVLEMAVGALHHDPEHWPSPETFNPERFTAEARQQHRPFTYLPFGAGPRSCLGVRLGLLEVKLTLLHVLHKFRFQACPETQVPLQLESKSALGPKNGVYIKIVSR
Protocol: The compounds were tested for thromboxane synthase inhibition essentially as described by Borsch-Haubold A G, Pasquet S, Watson S P. (1998) Direct inhibition of cyclooxygenase-1 and -2 by the kinase inhibitors SB 203580 and PD 98059. […] 1. Imidazole derivatives. J Med. Chem. (10):1139-48 according to the following:
Pre-incubation time, temp: 15 minutes at 25° C. Incubation time, temp: 3 minutes at 25° C.
Incubation Buffer: 10 mM Tris-HCl, pH 7.4
Quantification Method: EIA quantification of TxB2

[2] = biological target: T3, Human Recombinant (E. coli) PPARgamma (Homo sapiens, UniProt P37231); assay: PPAR gamma binding assay ([3H]-rosiglitazone); conditions: for Ki / IC50: [3H]-rosiglitazone 10 nM; for Ki: Cheng Prusoff, read-out: PPARγ binding Ki; for IC50: read-out: PPARγ binding IC50
T3 construct: host or cells: E. coli
T3 sequence (P37231 1-505): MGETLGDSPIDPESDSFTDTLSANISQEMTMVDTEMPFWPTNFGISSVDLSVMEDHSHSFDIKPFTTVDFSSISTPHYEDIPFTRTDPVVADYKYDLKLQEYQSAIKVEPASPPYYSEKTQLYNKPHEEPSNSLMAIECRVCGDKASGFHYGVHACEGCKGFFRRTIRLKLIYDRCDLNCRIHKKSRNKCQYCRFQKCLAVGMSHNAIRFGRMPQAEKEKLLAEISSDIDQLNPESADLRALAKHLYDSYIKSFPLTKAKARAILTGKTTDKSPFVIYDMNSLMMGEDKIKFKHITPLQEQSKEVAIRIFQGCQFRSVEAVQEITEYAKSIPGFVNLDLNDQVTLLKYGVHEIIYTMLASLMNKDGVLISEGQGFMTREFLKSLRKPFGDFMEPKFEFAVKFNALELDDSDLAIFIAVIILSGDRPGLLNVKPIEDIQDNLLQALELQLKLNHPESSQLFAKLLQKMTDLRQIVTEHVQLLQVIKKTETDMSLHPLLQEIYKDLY
Protocol: Incubation: 120 min. at 4° C.
The results are expressed as a percent of control specific binding ((measured specific binding/control specific binding)×100) obtained in the presence of the test compounds. The IC50 values (concentration causing a half-maximal inhibition of control specific binding) and Hill coefficients (nil) were determined by non-linear regression analysis of the competition curves generated with mean replicate values using Hill equation curve fitting (Y=D+[(A−D)/(1+(C/C50)nH)], where Y=specific binding, D=minimum specific binding, A=maximum specific binding, C=compound concentration, C50=IC50, and nH=slope factor). This analysis was performed using a software developed at Cerep (Hill software) and validated by comparison with data generated by the commercial software SigmaPlot® 4.0 for Windows® (© 1997 by SPSS Inc.). The inhibition constants (Ki) were calculated using the Cheng Prusoff equation (Ki=IC50/(1+(L/KD)), where L=concentration of radioligand in the assay, and KD=affinity of the radioligand for the receptor).

[3] = system: Human platelet rich plasma; assay: TP receptor platelet aggregation, human (U-46619-induced); format: cell-based; conditions: 3 μM U-46619-induced
Protocol: (§1) Thrombosis Research 33:277-288.
TP Receptor Platelet Aggregation—Human:
Human (60±10 kg) platelet rich plasma
Assay. Inhibition of 3 μM U-46619-induced platelet aggregation Incubation Time, Temp: 5 minutes at 37° C. Incubation Buffer Trisodium Citrate (0.13 M)-treated fresh platelet rich plasma
(§2) Time of Assessment: 5 minutes
(§3) Quantification Method Optical Density Change

[4] = system: arterial thrombosis in a mouse model; assay: Arterial thrombosis mouse model (FeCl3 on femoral artery); format: in vivo; conditions: dose not given
Protocol: The solutions are diluted 3.3-fold in saline and 100 μl/25 g is injected. Thus, the above-mentioned doses of 100 and 300 mg/kg of compound correspond to final doses of 30 and 100 mg/kg.
During the experiments, a soluble salt of the drug is provided (potassium salt of compound C), diluted in saline. Of this formulation, 100 μl/25 g is injected i.v. in the tail vein (dose of 100 mg/kg).
Solutions are injected (100 μl/25 g body weight) i.v. in the tail vein over 2 min to obtain doses of each compound of 30 mg/kg and 100 mg/kg. Aspirin is given the same way at a dose of 200 mg/kg. Clopidogrel is administered by oral gavage at a dose of 20 mg/kg at 6-7 hours prior to the experiment. The animals assigned to each group are matched for body weight. Mice are typically 8-10 weeks old males and are in a 100% Swiss genetic background.
The flow in each image is expressed as a percentage of that at the contralateral side, and data are averaged for all 120 images to determine total flow. The same analysis is performed for 10 min intervals (which gives essentially the same information as the area under the curve). […] Flow before treatment is recorded as 100%, and that in occluded arteries as 0%. At the end of the experiment, blood is collected on 0.01M citrate by heart puncture for determination of blood cell counts. Plasma is prepared by centrifugation and stored at −20° C. for determination of drug levels.
Statistical analysis for differences between two groups is performed by non-parametric Student t-test. Occlusion times >30 min were considered equal to 30 min for statistical analysis. Significance is set at p<0.05.

[5] = system: New Zealand Rabbit platelet rich plasma; assay: TP receptor platelet aggregation, rabbit (U-46619-induced); format: cell-based
Protocol: as §1
TP Receptor Platelet Aggregation—Rabbit:
New Zealand Rabbit (2.75±0.25 kg) platelet rich plasma
Assay: Inhibition of 1.5 μM U-46619-induced platelet aggregation Incubation Time, Temp: 5 minutes at 37° C. Incubation Buffer Trisodium Citrate (0.13 M)-treated platelet rich plasma
as §2, §3

SMILES	inhibition at 10 µM [1] [%]	IC50 (Thromboxane synthase) [nM]	inhibition at 10 µM (Thromboxane synthase; 10 μM) [%]	Ki [2] [nM]	IC50 [2] [nM]	IC50 [3] [nM]	Occlusion time [4]	Total blood flow [4]	IC50 ([1]; 5 nM [3H] SQ-29548) [nM]	Ki ([1]; 5 nM [3H] SQ-29548) [nM]	inhibition at 5 µM (Thromboxane synthase; 5 μM) [%]	Inhibition of thromboxane synthase (in words) (Thromboxane synthase; Table 2)	inhibition at 30 µM ([5]; Oryctolagus cuniculus, Platelet, 30 μM, 1.5 μM U-46619-induced) [%]	Inhibition of platelet aggregation (in words) ([5]; Table 2)	PPARgamma binding compared with Compound A (in words) ([2]; summary of Table 3)	Thromboxane synthase Human platelet Inhibition (%) (Thromboxane synthase; 10 μM)	inhibition at 100 µM ([5]; Oryctolagus cuniculus, Platelet, 0.1 mM, 1.5 μM U-46619-induced) [%]	PPARγ binding (in words) ([2]; at 30 μM)	inhibition at 30 µM ([3]; 30 μM) [%]
O=C(O)CC/C=C\CC1COC(c2ccccc2Cl)OC1c1ccccc1O (racemic) [Compound A, (Z)-6-(-2-(2-chlorophenyl)-4-(2-hydroxyphenyl)-1,3-dioxan-5-yl)hex-4-enoic acid]	105	31900	16	4800	13000	1500	–	–	–	–	–	–	–	–	–	–	–	–	–
COc1ccc(Oc2ccccc2C2OC[C@@H](C/C=C\CCC(=O)O)[C@@H](c3ccccc3O)O2)cc1 (stereo partly drawn) [Compound 1]	101	354	–	800	2300	–	prolongs the occlusion time	improves total blood flow	1.25	0.82	71	inhibitors of thromboxane synthase	96	potent inhibitors of platelet aggregation	at least as well as Compound A	–	–	–	–
O=C(O)CC/C=C\C[C@H]1CO[C@@H](c2ccccc2Cl)O[C@H]1c1ccccc1O [Compound B, (Z)-6-((2R,4R,5S)-2-(2-chlorophenyl)-4-(2-hydroxyphenyl)-1,3-dioxan-5-yl)hex-4-enoic acid]	–	–	25	–	–	–	–	–	–	–	–	–	–	–	–	28	15	no binding	13
